According to the supplement of paper PMC10307832:

Columns and labels:
Experiment in all cases: relative viability (nuclei count vs DMSO), 5 days (fraction); higher = more cells survive
[1] = compound: CC[C@H](CO)Nc1nc(NCc2ccccc2)c2ncn(C(C)C)c2n1 [Seliciclib] + C[C@]1(O)C[C@@H](c2nc(-c3ccc4ccc(-c5ccccc5)nc4c3)c3c(N)nccn32)C1 [Linsitinib] (partner 1 µM)
Outline: (§1)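 Lung cancer cell lines, seeded in 1536-well plates, were treated the following day by pin tool with a single drug or with five library-drug doses (not always all listed) in √10 steps on top of a fixed anchor-drug dose. Cells were fixed and nuclei stained in one step after 5 days, and nuclei were counted. Relative viability is the nuclei count for treated wells divided by that for vehicle wells, reported as medians of duplicate plates.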

[2] = compound: CC[C@H](CO)Nc1nc(NCc2ccccc2)c2ncn(C(C)C)c2n1 [Seliciclib] + CC1(C)CCC(c2ccc(Cl)cc2)=C(CN2CCN(c3ccc(C(=O)NS(=O)(=O)c4ccc(N[C@H](CCN5CCOCC5)CSc5ccccc5)c(S(=O)(=O)C(F)(F)F)c4)cc3)CC2)C1 [Navitoclax] (partner 0.5 µM)
Outline: as §1

[3] = compound: CC[C@H](CO)Nc1nc(NCc2ccccc2)c2ncn(C(C)C)c2n1 [Seliciclib] + O=C(CCCCCCC(=O)Nc1ccccc1)NO [Vorinostat] (partner 1 µM)
Outline: as §1

[4] = compound: CC[C@H](CO)Nc1nc(NCc2ccccc2)c2ncn(C(C)C)c2n1 [Seliciclib] + Cc1nc(NC(=O)N2CCC[C@H]2C(N)=O)sc1-c1ccnc(C(C)(C)C(F)(F)F)c1 [Alpelisib] (partner 2 µM)
Outline: as §1

Row | Cell Line | relative viability ([1]; first compound 0.08 µM) | relative viability ([1]; first compound 0.253 µM) | relative viability ([1]; first compound 0.8 µM) | relative viability ([1]; first compound 2.53 µM) | relative viability ([1]; first compound 8 µM) | relative viability ([2]; first compound 0.08 µM) | relative viability ([2]; first compound 0.253 µM) | relative viability ([2]; first compound 0.8 µM) | relative viability ([2]; first compound 2.53 µM) | relative viability ([2]; first compound 8 µM) | relative viability ([3]; first compound 0.08 µM) | relative viability ([3]; first compound 0.253 µM) | relative viability ([3]; first compound 0.8 µM) | relative viability ([3]; first compound 2.53 µM) | relative viability ([3]; first compound 8 µM) | relative viability ([4]; first compound 0.08 µM) | relative viability ([4]; first compound 0.253 µM) | relative viability ([4]; first compound 0.8 µM) | relative viability ([4]; first compound 2.53 µM) | relative viability ([4]; first compound 8 µM)
1 | IA-LM | 0.644 | 0.793 | 0.602 | 0.709 | 0.611 | 0.738 | 1.15 | 0.732 | 0.772 | 0.72 | 0.895 | 0.984 | 0.848 | 0.935 | 0.867 | 0.645 | 0.935 | 0.599 | 0.979 | 0.556
2 | H3255 | 0.872 | 0.926 | 1.02 | 1.16 | 0.891 | 0.656 | 0.558 | 0.512 | 0.436 | 0.46 | 0.854 | 0.825 | 0.855 | 0.691 | 0.755 | 0.608 | 0.667 | 0.721 | 0.806 | 0.587
3 | LOU-NH91 | 0.878 | 0.889 | 0.881 | 1.01 | 0.693 | 0.591 | 0.61 | 0.591 | 0.695 | 0.482 | – | 0.863 | 0.803 | 0.778 | 0.613 | 0.687 | 0.689 | 0.661 | 0.653 | 0.515
4 | NCI-H3122 | 0.966 | 1.03 | 0.987 | 1.05 | 0.94 | 1.02 | 1.07 | 1.01 | 1.03 | 0.903 | 0.925 | 0.979 | 0.759 | 1.09 | 0.86 | 0.762 | 0.763 | 0.753 | 0.765 | 0.777
5 | PC-3 [JPC-3] | 0.954 | 0.994 | 1 | 0.915 | 0.893 | 0.829 | 0.84 | 0.77 | 0.786 | 0.751 | 0.796 | 0.957 | 0.876 | 0.601 | 0.633 | 1.02 | 1.07 | 0.968 | 0.997 | 0.904
6 | NCI-H1651 | 0.878 | 0.879 | 0.91 | 0.924 | 0.839 | 0.947 | 0.965 | 0.863 | 1.14 | 0.887 | 0.515 | 0.551 | 0.542 | 0.477 | 0.457 | 0.93 | 0.839 | 0.833 | 0.81 | 0.804
7 | NCI-H2087 | 0.896 | 0.991 | 1 | 0.867 | 0.862 | 0.914 | 0.879 | 0.991 | 0.879 | 0.696 | 0.802 | 0.677 | 0.686 | 0.725 | 0.314 | 1.08 | 1.21 | 1.06 | 1.09 | 0.815
